The target of this test is T1, gelatinase (72 (Kd) (Homo sapiens, UniProt P08253)).
T1 sequence (P08253 110-660): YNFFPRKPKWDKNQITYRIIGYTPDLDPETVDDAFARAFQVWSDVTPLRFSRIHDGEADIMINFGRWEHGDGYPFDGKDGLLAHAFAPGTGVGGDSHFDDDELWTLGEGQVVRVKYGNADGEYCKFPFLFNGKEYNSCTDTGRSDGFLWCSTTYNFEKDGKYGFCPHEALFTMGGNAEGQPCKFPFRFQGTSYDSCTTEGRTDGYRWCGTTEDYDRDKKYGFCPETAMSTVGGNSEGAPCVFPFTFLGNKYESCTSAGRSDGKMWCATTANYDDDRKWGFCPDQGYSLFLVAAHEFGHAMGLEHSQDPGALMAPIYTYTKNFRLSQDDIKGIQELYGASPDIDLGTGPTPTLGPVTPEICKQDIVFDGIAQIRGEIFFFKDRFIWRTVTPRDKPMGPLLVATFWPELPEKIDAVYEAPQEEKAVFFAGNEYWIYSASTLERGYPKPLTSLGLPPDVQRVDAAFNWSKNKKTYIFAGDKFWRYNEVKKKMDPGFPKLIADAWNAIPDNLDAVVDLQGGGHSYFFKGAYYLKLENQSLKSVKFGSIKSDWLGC
The test is described as follows: Assay of Gelatinase Inhibition Activity (72 Kd gelatinase). Format: biochemical. The settings on record: 60 minutes at 37° C.; for inhibition at 10 µM: at 10 μM of compound, read-out: percent inhibition of gelatinase. The protocol: Stromelysin was first activated by trypsin. This was done by preparing a reaction mixture in B-150 (B-150 consists of 150 mM NaCl, 20 mM Tris at pH 7.8 and 0.02% sodium azide) containing a final concentration of 4 μg/mL trypsin, 1.48 μg/mL of stromelysin, and 3.15 mM CaCl2. The reaction was incubated for 30 minutes at 37° C. and then quenched by adding soybean trypsin inhibitor to a final concentration of 43.6 μg/mL. ZnCl2 was added to the reaction mixture for a total concentration of 0.24 μM.
Following preparation of the solution of activated stromelysin, assay solutions were prepared for each inhibitor being tested. A control was also prepared. First, […] of activated stromelysin (about 45 μL from the solution of activated stromelysin) were aliquotted per assay tube. A 2.5 mM solution in 100% dimethyl sulfoxide (DMSO) was prepared for each inhibitor being tested and 1 μL from each inhibitor solution was added to one of the assay tubes. In addition, 1 μL of 100% DMSO was added to the control assay tube. All assay tubes were then pre-incubated for 5 minutes.
5 μL of a previously prepared 50 μM solution of substrate in 15% DMSO were added to each assay tube. The substrate was a methoxycumarin developed by Knight et al. FEBS Lett. 296:263-66 (1992). The tubes were then incubated for 60 minutes, at which time the reaction was stopped with the addition of 750 μL of 0.1M NaAc pH 4.0 buffer.
Substrate hydrolysis was assessed by fluorescence using a slit width of 10:10, excitation at 328 nm and emission at 393 nm. The results of these assays are listed in Table I as percent inhibition at 10 μM of the bile acid provided compound tested or as the IC50.
The assay procedure for gelatinase (72 (Kd) was the same as described in Example 13 for stromelysin except that the trypsin activation was performed for 60 minutes. In addition, the incubation of the assay tubes at 37° C. was for 60 minutes, and the final enzyme concentration was 3 nm. The results of these assays are listed in Table I as percent inhibition at 10 μM of the compound tested.

As a reminder, the IC50 is the midpoint of a concentration-inhibition curve. As usually defined, the inhibition is the drop in the measured response relative to a control, in per cent.

The compound `CC(C)C[C@H](NC(=O)CC[C@@H](C)[C@H]1CC[C@H]2[C@@H]3CC[C@@H]4C[C@H](O)CC[C@]4(C)[C@H]3CC[C@]12C)C(=O)NO` [Compound 9, Lithocholyl-(L)-Leucine Hydroxamic Acid] registered an IC50 of 0.3 µM.

In the case of `CC(C)C[C@H](NC(=O)CC[C@@H](C)[C@H]1CC[C@H]2[C@@H]3[C@H](O)C[C@@H]4C[C@H](O)CC[C@]4(C)[C@H]3CC[C@]12C)C(=O)NO` [Compound 10, Chenodeoxycholyl-(L)-Leucine Hydroxamic Acid], the inhibition at 10 µM amounted to 27%.

`C[C@H](CCC(=O)NO)[C@H]1CC[C@H]2[C@@H]3CC[C@@H]4C[C@H](O)CC[C@]4(C)[C@H]3CC[C@]12C` [Compound 13, Lithocholylhydroxamic Acid] showed an IC50 of 8 µM. Turning to `C[C@H](CCC(=O)N[C@@H](Cc1ccccc1)C(=O)NO)[C@H]1CC[C@H]2[C@@H]3CC[C@@H]4C[C@H](O)CC[C@]4(C)[C@H]3CC[C@]12C` [Compound 15, Lithocholyl-(L)-Phenylalanine Hydroxamic Acid], the inhibition at 10 µM is 47%. The same measure, in the same setting: with `C[C@H](CCC(=O)N[C@@H](Cc1ccccc1)C(=O)NO)[C@H]1CC[C@H]2[C@@H]3[C@H](O)C[C@@H]4C[C@H](O)CC[C@]4(C)[C@H]3CC[C@]12C` [Compound 16, Chenodeoxycholyl-(L)-Phenylalanine Hydroxamic Acid] the figure was 23%; with `CCOC(=O)[C@H](CS)NC(=O)[C@H](Cc1ccccc1)NC(=O)CC[C@@H](C)[C@H]1CC[C@H]2[C@@H]3CC[C@@H]4C[C@H](O)CC[C@]4(C)[C@H]3CC[C@]12C` [Compound 19, Lithocholyl-(L)-Phenylalanyl-(L)-Cysteine Ethyl Ester], 47%. On to `C[C@H](CCC(=O)N[C@@H](Cc1ccccc1)C(=O)NC1CCSC1=O)[C@H]1CC[C@H]2[C@@H]3CC[C@@H]4C[C@H](O)CC[C@]4(C)[C@H]3CC[C@]12C` (stereo partly shown) [Compound 20, Lithocholyl-Phenylalanylhomocysteine Thiolactone], for which the inhibition at 10 µM is 30%.

The values above are taken from patent US5646316A, “Bile acid inhibitors of metalloproteinase enzymes” (OsteoArthritis Sciences, Inc., priority 1995, dated 1997).
